Laboratory results from patent US7071344B1, “Vitamin D derivatives with cyclopropyl rings in the lateral chains, a method and intermediate products for the production thereof and the utilization thereof for producing medicaments” (Schering AG, priority 1997, dated 2006).

Experiments:
HL 60 cells = test: differentiation induction of HL 60 cells to macrophages (NBT reduction); assay type: cell-based, human; conditions: dose ratio test substance/calcitriol for comparable semi-maximum differentiation induction; 96 hours incubation
Protocol: The differentiation-stimulating action of calcitriol analogues is also detected quantitatively.
It is known in the literature [Mangelsdorf, D. J. et al., J. Cell. Biol. 98: 391 (1984)] that the treatment of human leukemia cells (promyelocyte cell line HL 60) in vitro with calcitriol induces the differentiation of cells to macrophages.
HL 60 cells are cultivated in tissue culture medium (RPMI 10% fetal calf serum) at 37° C. in an atmosphere of 5% CO2 in air.
For substance testing, the cells are centrifuged off, and 2.0×10^5 cells/ml in phenol red-free tissue culture medium is taken up. The test substances are dissolved in ethanol and diluted with tissue culture medium without phenol red to the desired concentration. The dilution stages are mixed with the cell suspension at a ratio of 1:10, and 100 μl each of this cell suspension that is mixed with substance is pipetted into an indentation of a 96-hole plate. For control, a cell suspension is mixed analogously with the solvent.
After incubation for 96 hours at 37° C. in 5% CO2 in air, 100 μl of an NBT-TPA solution (nitro blue tetrazolium (NBT), final concentration in the batch of 1 mg/ml, tetradecanoyl phorbolmyristate-13-acetate (TPA), final concentration in the batch of 2×10^−7 mol/l) is pipetted into each indentation of the 96-hole plate in the cell suspension.
By incubation for 2 hours at 37° C. and 5% CO2 in air, NBT is reduced to insoluble formazan because of the intracellular oxygen radical release, stimulated by TPA, in the cells that are differentiated to macrophages.
To complete the reaction, the indentations of the 96-hole plate are suctioned off, and the cells are affixed to the bottom of the plate by adding methanol and dried after affixing. To dissolve the intracellular formazan crystals that are formed, 100 μl of potassium hydroxide (2 mol/l) and 100 μl of dimethyl sulfoxide are pipetted into each indentation and ultrasonically treated for 1 minute. The concentration of formazan is measured by spectrophotometry at 650 nm.
As a yardstick for the differentiation induction of HL 60 cells to macrophages, the concentration of formed formazan applies.

[1] = acute hypercalcemic action (serum-calcium) in rats; assay type: in vivo, rat; conditions: dose ratio test substance/calcitriol for comparable hypercalcemic action; one-time subcutaneous administration, male rats
Protocol: To determine the acute hypercalcemic action of various calcitriol derivatives, the test that is described below is carried out:
The action of control (solution base), reference substance (1,25-dihydroxy vitamin D3=calcitriol) and test substance is tested in each case after one-time subcutaneous administration in groups of 10 healthy male rats (140–170 g). During the testing time, the rats are kept in special cages to determine the excretion of water and mineral substances. Urine is collected in 2 fractions (0–16 hours and 16–22 hours). An oral dose of calcium (0.1 mmol of calcium in 6.5% alpha-hydroxypropylcellulose, 5 ml/animal) replaces at 1600 hours the calcium intake that is lacking by food deprivation. At the end of the test, the animals are killed by decapitation and exsanguinated to determine the serum-calcium values. For the primary screen test in vivo, an individual standard dose (200 μg/kg) is tested. For selected substances, the result is supported by establishing a dose-effect relation.
A hypercalcemic action is shown in serum-calcium level values that are higher than in the control.
The significance of differences between substance groups and controls and between test substance and reference substance are supported with suitable statistical processes.

[2] = metabolic stability in liver homogenate; assay type: in vitro ADME; conditions: half-life in the liver homogenate (rat)
Protocol: To determine the metabolic stability, the test substance is incubated with tissue homogenate (from the rat liver) in the presence of buffer systems. The drop in starting concentration is tracked as a function of time. After a certain time, the incubation is stopped, and the unaltered test substance is extracted from the homogenate (diethyl ether), concentrated by evaporation under nitrogen, isolated via HPLC (mobile solvent: acetonitrile/water) and detected using UV-absorption.

calcitriol receptor = target: T1, calcitriol receptor (Sus scrofa, UniProt A3RGC1); test: calcitriol-receptor test (competition with 3H-calcitriol); conditions: competition factor = concentration of test substance / concentration of calcitriol at 50% competition; protein extract from intestines of juvenile pigs
T1 sequence (A3RGC1 1-427): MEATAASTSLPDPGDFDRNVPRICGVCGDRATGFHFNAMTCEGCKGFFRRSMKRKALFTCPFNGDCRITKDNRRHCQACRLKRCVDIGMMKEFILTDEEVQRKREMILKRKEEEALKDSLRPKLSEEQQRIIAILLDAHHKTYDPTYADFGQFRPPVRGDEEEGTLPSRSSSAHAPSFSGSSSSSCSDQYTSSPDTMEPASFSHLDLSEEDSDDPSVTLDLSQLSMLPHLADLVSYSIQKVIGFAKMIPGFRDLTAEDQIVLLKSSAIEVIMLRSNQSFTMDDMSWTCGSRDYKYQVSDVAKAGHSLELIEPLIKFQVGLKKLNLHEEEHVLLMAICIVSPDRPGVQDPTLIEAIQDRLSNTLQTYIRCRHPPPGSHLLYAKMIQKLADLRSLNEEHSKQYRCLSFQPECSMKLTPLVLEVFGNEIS
Protocol: The vitamin D activity of the substances according to the invention is determined with the aid of the calcitriol-receptor test. It is carried out using a protein extract from the intestines of juvenile pigs.
Then, the samples are centrifuged at 10,000 g for 5 minutes at 4° C. The supernatant is decanted and measured in a β-counter after 1 hour of equilibration in Picofluor 15™.
The competition curves that are obtained at various concentrations of test substance as well as of reference substance (unlabeled calcitriol) at constant concentration of the reference substance (^3H-calcitriol) are placed in relation to one another, and a competition factor (KF) is determined.
It is defined as a quotient of the concentrations of the respective test substance and the reference substance, which are necessary for 50% competition:

Compound	DR Ca [1]	T½ [2]	KF (calcitriol receptor)	half-life ([2]; read-out: T½)	DR HL 60 (HL 60 cells)
C=C1/C(=C\C=C2/CCC[C@]3(C)[C@@H]([C@H](C)/C=C/[C@H](O)C4(CCCC)CC4)CC[C@@H]23)C[C@@H](O)C[C@@H]1O [Compound 226a, (5Z,7E,22E)-(1S,3R,24S)-25-Butyl-26,27-cyclo-9,10-secocholesta-5,7,10(19),22-tetraene-1,3,24-triol]	>>1	1.33 h	4	–	2
C=C1C(=CC=C2CCCC3(C)C2CCC3C(C)C=CC(O)C2(CCCC)CC2)CC(O)CC1O [Compound 226b, (5Z,7E,22E)-(1S,3R,24R)-25-butyl-26,27-cyclo-9,10-secocholesta-5,7,10(19),22-tetraene-1,3,24-triol]	>5	1.67 h	3	–	0.4
C=C1/C(=C\C=C2/CCC[C@]3(C)[C@@H]([C@H](C)/C=C/[C@@H](O)C4CC4)CC[C@@H]23)C[C@@H](O)C[C@@H]1O [calcipotriol, (5Z,7E,22E)-(1S,3R,24S)-26,27-Cyclo-9,10-secocholesta-5,7,10(19),22-tetraene-1,3,24-triol, reference compound]	50	–	1	0.667 h	1
[5Z,7E,22E,25(Z)]-(1S,3R,24S)-25-(1-octenyl)-26,27-cyclo-9,10-secocholesta-5,7,10(19),22-tetraene-1,3,24-triol [Compound 246b]	>>10	1.67 h	10	–	2

Now from value to compound, other results behind:

DR Ca [1]	T½ [2]	KF (calcitriol receptor)	half-life ([2]; read-out: T½)	Compound	DR HL 60 (HL 60 cells)
>100	1.25 h	9	–	C=C1/C(=C\C=C2/CCC[C@]3(C)[C@@H]([C@H](C)/C=C/[C@@H](O)C4(CCCCCC)CC4)CC[C@@H]23)C[C@@H](O)C[C@@H]1O [Compound 231b, (5Z,7E,22E)-(1S,3R,24R)-25-hexyl-26,27-cyclo-9,10-secocholesta-5,7,10(19),22-tetraene-1,3,24-triol]	2
>>30	1.67 h	20	–	C=C1/C(=C\C=C2/CCC[C@]3(C)[C@@H]([C@H](C)/C=C/[C@@H](O)C4(CCCCCCC)CC4)CC[C@@H]23)C[C@@H](O)C[C@@H]1O [Compound 236b, (5Z,7E,22E)-(1S,3R,24R)-25-heptyl-26,27-cyclo-9,10-secocholesta-5,7,10(19),22-tetraene-1,3,24-triol]	4
